Data reported in US20070249822A1, “Photolabile Coumarinylmethyl Esters of Cyclic Nucleotides, Methods for their Preparation and Their Use” (Forschungsverbund Berlin E.V., priority 2000, published 2007).

Key:
[1] = cited from earlier work
[2] = tested on: olfactory cGMP-dependent cation channel; test: Activation of the olfactory cGMP-dependent cation channel upon photolysis of caged cGMP; format: cell-based; conditions: for activation of the olfactory cGMP-dependent cation channel upon photolysis: HEPES buffer
Text: The new photolabile cGMP and cAMP esters can be used successfully in the investigation of cyclic nucleotide-controlled processes.

[3] = cited from earlier work; remark: listed apart in the source
[4] = tested on: cyclic nucleotide-dependent ion channel CNCα3 (from olfactory cells); test: Whole cell measurements on HEK293 cells: activation of CNCα3 by photolytic liberation of cAMP; format: cell-based; conditions: axial form, 500 μM intracellular solution, UV flashes 10 to 200 ms; versus 200 μM DMN-caged cGMP on CNCα2, equal exposures
Text: Activation of Cyclic Nucleotide-Dependent Ion Channels by Photolytic Liberation of Cyclic Nucleotides from the Corresponding Caged Compounds
Using whole cell measurements on HEK293 cells, the activation of the cyclic nucleotide-dependent ion channel CNCα3 (from olfactory cells) by photolytic liberation of cAMP from the axial form of the compound of Example 1 ([…]) and of the cyclic nucleotide-dependent ion channel CNCα2 (from rod photoreceptors) by photolytic liberation of cGMP from the axial form of 4,5-dimethoxy-2-nitrobenzyl ester of cGMP [DMN-caged cGMP, produced according to J. M. Nerbonne, S. Richard, J. Nargeot, H. A. Lester, Nature 310, 74 (1984)] was investigated comparatively by electrophysiological means.

[5] = Solubility of coumarinylmethyl-caged cyclic nucleotides in acetonitrile/HEPES buffer (saturation concentration by HPLC); format: physicochemical; conditions: acetonitrile/HEPES buffer (5:95), pH 7.2, room temperature
Protocol: Comparison of the Solubilities of Miscellaneous coumarinyl-methyl-caged Cyclic Nucleotides in Acetonitrile/HEPES Buffer (5:95) at pH 7.2 and Room Temperature
A suspension of the compounds in the specified solvent was treated for 5 min in an ultrasonic bath, undissolved components were removed by centrifugation, and the concentration in the solution was determined using HPLC. The following saturation concentrations were determined: […]

COc1ccc2c(COP3(=O)OCC4OC(n5cnc6c(N)ncnc65)C(O)C4O3)cc(=O)oc2c1 (single isomer, unassigned) [equatorial isomer of the (7-methoxycoumarin-4-yl)methyl ester of cAMP, (7-methoxycoumarin-4-yl)methyl ester of cAMP]
hydrolytic halflife ([1]; Ringer's solution): 60 h

COc1ccc2c(COP3(=O)OCC4OC(n5cnc6c(=O)[nH]c(N)nc65)C(O)C4O3)cc(=O)oc2c1 (stereo not drawn) [7-methoxycoumarinylmethyl-caged cGMP]
activation of the olfactory cGMP-dependent cation channel upon photolysis [2]: not more than partially

Nc1ncnc2c1ncn2C1OC2COP(=O)(OCc3ccc4c(c3)C(=O)c3ccccc3C4=O)OC2C1O (stereo not drawn) [(anthraquinon-2-yl)methyl ester of cAMP]
solubility in aqueous buffer solutions [3]: insufficient solubility

Nc1ncnc2c1ncn2C1OC2COP(=O)(OCc3ccc4ccccc4c3)OC2C1O (stereo not drawn) [(naphth-2-yl)methyl ester of cAMP]
solubility in aqueous buffer solutions [3]: insufficient solubility

Nc1nc2c(ncn2C2OC3COP(=O)(OCc4cc(=O)oc5cc(OCC(=O)O)c(OCC(=O)O)cc45)OC3C2O)c(=O)[nH]1 (stereo not drawn) [Compound 10, [6,7-bis(carboxymethoxy)coumarin-4-yl]methyl ester of cGMP]
amount of incident light for comparable activation of the channel ([2]; 333 nm, compared to the 4,5-dimethoxy-2-nitro-benzyl ester of cGMP): substantially smaller amounts of incident light

Nc1ncnc2c1ncn2C1OC2COP(=O)(OCc3cc(=O)oc4cc(OCC(=O)O)c(OCC(=O)O)cc34)OC2C1O (stereo not drawn) [Example 1, [6,7-Bis(carboxymethoxy)coumarin-4-yl]methyl ester of cAMP]
concentration of liberated cyclic nucleotide [4]: substantially higher concentrations of liberated cyclic nucleotide

Nc1nc2c(ncn2C2OC3COP(=O)(OCc4cc(=O)oc5cc(OCC(=O)O)ccc45)OC3C2O)c(=O)[nH]1 (stereo not drawn) [Example 3]
activation of the olfactory cGMP-dependent cation channel upon photolysis [2]: complete activation

Nc1nc2c(ncn2C2OC3COP(=O)(OCc4cc(=O)oc5cc(OCC(=O)O)c(OCC(=O)O)cc45)OC3C2O)c(=O)[nH]1 (stereo not drawn) [[6,7-Bis(carboxymethoxy)coumarin-4-yl]methyl-caged cGMP (equ]
saturation concentration [5]: > 100 µM

Nc1ncnc2c1ncn2C1OC2COP(=O)(OCc3cc(=O)oc4cc(OCC(=O)O)ccc34)OC2C1O (stereo not drawn) [[7-(Carboxymethoxy)coumarin-4-yl]methyl-caged cAMP (axial)]
saturation concentration [5]: 900 µM

Nc1ncnc2c1ncn2C1OC2COP(=O)(OC(C(=O)c3ccccc3)c3ccccc3)OC2C1O (stereo not drawn) [desyl ester of cAMP]
sensitivity to solvolysis ([1]; aqueous buffer solutions): sensitive to solvolysis

(7-Methoxycoumarin-4-yl)methyl-caged 8-Br-cGMP [(7-Methoxycoumarin-4-yl)methyl-caged 8-Br-cGMP (axial)]
saturation concentration [5]: 40 µM

(7-Methoxycoumarin-4-yl)methyl-caged 8-Br-cGMP [(7-Methoxycoumarin-4-yl)methyl-caged 8-Br-cGMP (equatorial)]
saturation concentration [5]: 20 µM

(7-Methoxycoumarin-4-yl)methyl-caged cAMP
saturation concentration [5]: 15 µM

(7-Methoxycoumarin-4-yl)methyl-caged cGMP [(7-Methoxycoumarin-4-yl)methyl-caged cGMP (axial)]
saturation concentration [5]: 15 µM

(7-Methoxycoumarin-4-yl)methyl-caged cGMP [(7-Methoxycoumarin-4-yl)methyl-caged cGMP (equatorial)]
saturation concentration [5]: 25 µM
